Test results reported in patent US20260191853A1, “METHOD OF TREATING DRUG-INDUCED BRADYARRHYTHMIA” (OSAKA UNIVERSITY, priority 2022, published 2026).
“Also recorded” adds a separate entry of the source.

Tests used:
[1] = system: Hartley guinea pigs; assay: Preventive effect on siponimod-induced bradyarrhythmia in isoflurane-anesthetized guinea pig model; type: in vivo
Method: A solvent or compound (I) (free form) was administered by oral gavage at a dose of 0.3. 1, or 3 mg/kg (volume: 5 mL/kg) to Hartley guinea pigs (7 to 10 weeks old, male, available from Japan SLC, Inc.). After completion of the administration, each animal was subjected to anesthetic induction by inhalation of isoflurane (available from Pfizer Japan Inc.), and the animal was held on an operating table having a heater function. The trachea was incised, and a tracheal cannula (KN-375, available from Natsume Seisakusho Co., Ltd.) was inserted. The tracheal cannula was connected to a ventilator (SN-480-7, available from Shinano Seisakusho Co., Ltd.), and artificial respiration was controlled by supplying 100% oxygen at a volume of 10 mL and a ventilation rate of 60 times/minute. The solvent used was 0.5 w/v % methyl cellulose 400 solution (available from FUJIFILM Wako Pure Chemical Corporation). Isoflurane (available from Pfizer Japan Inc.) anesthesia (about 1 to 4%, carrier gas: 100% oxygen) was used for maintenance of anesthesia. A catheter (BD intramedic polyethylene tubing PE50, available from Becton, Dickinson and Company) charged with 50 units/mL heparin (available from AY PHARMACEUTICALS CO., LTD.) was inserted into each of the carotid artery and the jugular vein and placed in the blood vessel. Systemic blood pressure was measured with a high-sensitivity DC amplifier (AD-611J, available from NIHON KOHDEN CORPORATION) via the catheter placed in the carotid artery. Electrodes were attached to the body surface, and a body surface electrocardiogram was measured with a high-sensitivity amplifier (AB-611J, available from NIHON KOHDEN CORPORATION). Blood pressure and electrocardiogram data were acquired and analyzed with PowerLab/Labchart system (available from ADInstruments). Analysis items are systolic blood pressure, diastolic blood pressure, average blood pressure, heart rate, P-wave width, PR interval, QRS width, QT interval, and corrected QT interval. Corrected QT interval was calculated using the Fridericia formula (QTc=QT interval/RR interval^1/3). After stabilization of each parameter, siponimod (synthesized according to WO 2017/120124) was continuously administered intravenously at 0.01 mg/kg for 10 minutes via the catheter placed in the jugular vein, followed by observation of the presence or absence of the onset of bradyarrhythmia for 60 minutes. The solvent used was a solution prepared by mixing of Polyethylene Glycol 400 (available from KANTO CHEMICAL CO., INC.) and dimethyl sulfoxide (available from FUJIFILM Wako Pure Chemical Corporation) at 9: 1 (volume ratio). Data were recorded and blood was collected 5, 10, 15, 20, 30, and 60 minutes after initiation of administration of siponimod. The observation was terminated 60 minutes after initiation of the administration, and the animal was euthanized by exsanguination or intravenous administration of a large amount of saturated potassium chloride solution under isoflurane anesthesia. Data were analyzed for atrial beating rate over time, ventricular beating rate over time, electrocardiographic parameters, the presence or absence of the onset of atrioventricular block, and plasma concentrations of compound (I) and siponimod. The plasma was collected by centrifuging the blood and cryopreserved at about −20° C. After thawing of the plasma, plasma drug concentrations were measured using LC/MS/MS after deproteinization with acetonitrile.
In FIG. 3, the measurements are shown as mean±standard error. Abbreviations, etc. are as follows. • (I): compound (I) • Atrioventricular block: the presence or absence of atrioventricular block • (x denotes second- or third-degree atrioventricular block) • PR & QRS: atrioventricular conduction time and ventricular activation time • QT & QTcF: ventricular repolarization time and heart rate-corrected ventricular repolarization time • Plasma concentration: the plasma concentration of siponimod or compound (I)

[2] = system: Hartley guinea pigs; assay: Effect on fingolimod-induced decrease in blood lymphocytes in guinea pig; type: in vivo; settings: compound (I) 10 or 30 mg/kg oral gavage 30 min before fingolimod hydrochloride 0.1 mg/kg oral; 5 and 24 hours; FIG. 7
Method: Hartley guinea pigs (8 weeks old, male, available from Japan SLC, Inc.) were fasted for about 16 hours, and then a solvent or compound (I) (free form) was administered by oral gavage to each animal at a dose of 10 or 30 mg/kg (volume: 5 mL/kg). The solvent used was 0.5 w/v % methyl cellulose 400 solution (available from FUJIFILM Wako Pure Chemical Corporation). Thirty minutes after the administration, a solvent or fingolimod hydrochloride was administered by oral gavage to the animal at a dose of 0.1 mg/kg (volume: 5 mL/kg). The solvent used was saline (available from Otsuka Pharmaceutical Factory, Inc.). Blood was collected from the jugular vein, the subclavian vein, or the abdominal vena cava before administration of compound (I) and 5 and 24 hours after administration of fingolimod hydrochloride. Blood cell components were analyzed with a multi-item automatic blood cell counter (XN-1000, available from Sysmex Corporation). The plasma was collected by centrifuging the blood and cryopreserved at about −20° C. After thawing of the plasma, plasma drug concentrations were measured using LC/MS/MS after deproteinization with acetonitrile.
In FIG. 7, the measurements are shown as mean±standard error, and (I) denotes compound (I).

Cc1cc(CO)nc2cc3c(cc12)OC(C)(C)[C@H](O)[C@H]3NCCc1ccccc1 [Compound (I), (3R,4S)-7-Hydroxymethyl-2,2,9-trimethyl-4-(phenethylamino)-3,4-dihydro-2H-pyrano[2,3-g]quinoline-3-ol]
cases in which siponimod-induced atrioventricular block was not observed ([1]; 0.3 mg/kg oral gavage, four cases per group): 50%
cases in which siponimod-induced atrioventricular block was not observed ([1]; 1 mg/kg oral gavage, four cases per group): 75%
cases in which siponimod-induced atrioventricular block was suppressed ([1]; 3 mg/kg oral gavage, four cases per group): 100%
siponimod-induced bradycardia (ventricular beating rate / heart rate) ([1]; 3 mg/kg oral gavage, siponimod 0.01 mg/kg i.v.): completely restored; also recorded: completely prevented
onset of siponimod-induced bradyarrhythmia (atrioventricular block) ([1]; 0.3, 1, 3 mg/kg oral gavage, FIG. 3 and FIG. 4): prevented the onset of siponimod-induced bradyarrhythmia (atrioventricular block) in a dose-dependent manner
siponimod-induced bradycardia (ventricular beating rate / heart rate) ([1]; compound (I) 0.3, 1, 3 mg/kg oral gavage before siponimod 0.01 mg/kg i.v. over 10 min, FIG. 3): improved in a dose-dependent manner; also recorded: prevented a reduction in heart rate
siponimod-induced prolongation of QT time ([1]; compound (I) oral gavage 0.3-3 mg/kg): almost completely suppressed
effect on the peripheral blood lymphocyte decreasing action of fingolimod [2]: does not inhibit
